Read-outs that look alike come from different tables or passages of the source.
What was measured:
[1] = target: Norovirus RNA-dependent RNA polymerase (RdRp) (Norovirus, UniProt Q83883); test: BLI binding assay, non-specific binding control; details: Figure S2
SARS-CoV-2 3CL^pro [2] = target: T1, SARS-CoV-2 3CL^pro (Severe acute respiratory syndrome coronavirus 2, UniProt P0DTD1); test: Bio-layer interferometry (BLI) kinetic binding assay; details: for Binding to SARS-CoV-2 3CL^pro: 6.25 to 100 or 200 µM; for koff: read-out: Kdis
in vitro = details: human
Cathepsin L = Cathepsin L (Homo sapiens, UniProt P07711); test: Counter screen against Cathepsin L; format: biochemical; details: dose-response, Figure S1
Sequence of Cathepsin L (P07711 114-333): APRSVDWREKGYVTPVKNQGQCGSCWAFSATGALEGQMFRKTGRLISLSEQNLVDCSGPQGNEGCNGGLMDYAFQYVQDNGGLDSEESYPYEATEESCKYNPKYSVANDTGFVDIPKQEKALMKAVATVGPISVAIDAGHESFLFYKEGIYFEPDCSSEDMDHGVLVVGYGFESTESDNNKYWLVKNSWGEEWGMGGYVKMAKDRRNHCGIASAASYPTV

SARS-CoV-2 3CL^pro [3] = target: T1, SARS-CoV-2 3CL^pro; test: cell-based
SARS-CoV-2 3CL^pro [4] = target: T1, SARS-CoV-2 3CL^pro; test: biochemical; format: biochemical; details: for IC50: FRET dose-response, 100 nM 3CL^pro pre-incubated 30 min at 30 °C, 10 µM substrate, read-out: IC50 against SARS-CoV-2 3CL^pro
rats = details: taken orally, ref [7],[34]; cited from earlier work
[5] = single concentration of 20 μM, normalized to DMSO control

Sequence of Norovirus RNA-dependent RNA polymerase (RdRp) (Q83883 1282-1789): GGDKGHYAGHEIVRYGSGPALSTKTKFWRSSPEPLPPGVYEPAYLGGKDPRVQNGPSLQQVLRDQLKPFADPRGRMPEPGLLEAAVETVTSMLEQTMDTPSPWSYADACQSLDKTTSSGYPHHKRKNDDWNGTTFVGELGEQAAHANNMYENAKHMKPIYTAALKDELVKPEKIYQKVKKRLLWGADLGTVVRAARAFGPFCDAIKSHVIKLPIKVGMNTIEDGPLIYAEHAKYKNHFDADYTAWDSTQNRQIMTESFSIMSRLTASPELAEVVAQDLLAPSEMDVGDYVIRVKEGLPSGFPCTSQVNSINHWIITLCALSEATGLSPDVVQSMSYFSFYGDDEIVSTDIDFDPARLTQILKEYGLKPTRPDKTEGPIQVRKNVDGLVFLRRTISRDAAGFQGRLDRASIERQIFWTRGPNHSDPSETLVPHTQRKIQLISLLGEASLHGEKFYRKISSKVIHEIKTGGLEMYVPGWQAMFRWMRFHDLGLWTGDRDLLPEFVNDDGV

SMILES: COc1ccc(S(=O)(=O)N(CC(C)O)CC(O)C(Cc2ccccc2)NC(=O)c2ccc(O)c(O)c2)cc1 (stereo not drawn) [29#]
- KD with Norovirus RdRp [1]: either a large KD value or a not-detected KD value
- Binding to SARS-CoV-2 3CL^pro (SARS-CoV-2 3CL^pro [2]; BLI): dose-dependent manner
- Kd (SARS-CoV-2 3CL^pro [2]; ForteBio Octet System): 52.7 µM
- kon (SARS-CoV-2 3CL^pro [2]; ForteBio Octet System): 374 M⁻¹ s⁻¹
- koff (SARS-CoV-2 3CL^pro [2]; ForteBio Octet System): 0.0197 s⁻¹
- CC50 (in vitro): 24.8 µM
- Inhibitory effect against Cathepsin L (Cathepsin L): very limited inhibitory effect
- EC50 (SARS-CoV-2 3CL^pro [3]): 8.9 µM
- Hill slope (SARS-CoV-2 3CL^pro [4]; FRET dose-response curve): 1.78±0.32
- IC50 (SARS-CoV-2 3CL^pro [4]): 6.3 µM
- Inhibition of 3CL^pro activity in primary screening (SARS-CoV-2 3CL^pro [4]; [5]): significant inhibition

SMILES: COc1ccc(S(=O)(=O)N(CC(C)O)CC(O)C(Cc2ccccc2)NC(=O)C2(O)CC(O)C(O)C(OC(=O)C=Cc3ccc(O)c(O)c3)C2)cc1 (stereo not drawn) [50#]
- KD with Norovirus RdRp [1]: either a large KD value or a not-detected KD value
- Kd (SARS-CoV-2 3CL^pro [2]; BLI): 62 µM
- Binding to SARS-CoV-2 3CL^pro (SARS-CoV-2 3CL^pro [2]; BLI): dose-dependent manner
- Kd (SARS-CoV-2 3CL^pro [2]; ForteBio Octet System): 62.1 µM
- kon (SARS-CoV-2 3CL^pro [2]; ForteBio Octet System): 455 M⁻¹ s⁻¹
- koff (SARS-CoV-2 3CL^pro [2]; ForteBio Octet System): 0.0282 s⁻¹
- CC50 (in vitro): 49 µM
- Inhibitory effect against Cathepsin L (Cathepsin L): very limited inhibitory effect
- EC50 (SARS-CoV-2 3CL^pro [3]): 13.5 µM
- Hill slope (SARS-CoV-2 3CL^pro [4]; FRET dose-response curve): 1.93±0.30
- IC50 (SARS-CoV-2 3CL^pro [4]): 3.5 µM
- Inhibition of 3CL^pro activity in primary screening (SARS-CoV-2 3CL^pro [4]; [5]): significant inhibition

SMILES: CC(C)CN(C[C@@H](O)[C@H](Cc1ccccc1)NC(=O)O[C@H]1CO[C@H]2OCC[C@H]21)S(=O)(=O)c1ccc(N)cc1 [Darunavir]
- Inhibition of 3CL^pro activity in primary screening (SARS-CoV-2 3CL^pro [4]; [5]): no inhibitory activity

SMILES: O=c1c2ccccc2[se]n1-c1ccccc1 [Ebselen, ebselen, reference compound]
- median lethal dose (rats): > 4600 mg/kg
- Hill slope (SARS-CoV-2 3CL^pro [4]): 1.91±0.22
- Inhibition of 3CL^pro activity in primary screening (SARS-CoV-2 3CL^pro [4]): strongly inhibit
